Test results reported in US9428549B2, “Derivatives of N-urea substituted amino acids as formyl peptide receptor modulators” (Allergan, Inc., priority 2013, dated 2016).
Several values for one entry are separate records, joined by “and”; a condition that tells them apart may be missing. Equal entries are not always repeated.

Target: T1, FPR2 (Homo sapiens, UniProt P25090)
T1 construct: expressed in transfected cells
T1 sequence (P25090 1-351): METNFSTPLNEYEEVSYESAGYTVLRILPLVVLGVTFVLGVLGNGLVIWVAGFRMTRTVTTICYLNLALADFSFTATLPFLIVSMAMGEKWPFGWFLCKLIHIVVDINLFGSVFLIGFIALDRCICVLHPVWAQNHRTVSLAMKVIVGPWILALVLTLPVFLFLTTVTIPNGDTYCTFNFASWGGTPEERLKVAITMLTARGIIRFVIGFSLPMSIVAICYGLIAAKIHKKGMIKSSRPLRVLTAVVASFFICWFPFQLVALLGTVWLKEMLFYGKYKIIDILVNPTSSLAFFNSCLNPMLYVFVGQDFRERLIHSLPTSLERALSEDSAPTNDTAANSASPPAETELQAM
Experiment: Compound-induced calcium activity on FLIPR Tetra in CHO-Gα16 cells stably expressing FPRL1
Format: cell-based
Conditions: for FPR2 Ga16-CHO (Rel. eff.): relative efficacy; for EC50: tested 0.61 to 10,000 nM, read-out: FPR2 Ga16-CHO EC50
Description: CHO-Gα16 cells stably expressing FPRL1 were cultured in (F12, 10% FBS, 1% PSA, 400 μg/ml geneticin and 50 μg/ml hygromycin) and HEK-Gqi5 cells stable expressing FPR1 were cultured in (DMEM high glucose, 10% FBS, 1% PSA, 400 μg/ml geneticin and 50 μg/ml hygromycin). In general, the day before the experiment, 18,000 cells/well were plated in a 384-well clear bottom poly-d-lysine coated plate. The following day the screening compound-induced calcium activity was assayed on the FLIPR^Tetra. The drug plates were prepared in 384-well microplates using the EP3 and the MultiPROBE robotic liquid handling systems. Compounds were tested at concentrations ranging from 0.61 to 10,000 nM. Results are expressed as EC50 (nM) and efficacy values.

| SMILES | FPR2 Ga16-CHO (Rel. eff.) | EC50 | FPR2 Ga16-CHO (Rel. eff.) (listed as {Ethyl[(2S)-4-Methyl-2-({[4-(trifluoromethyl)phenyl]carbamoyl}amino)pentanoyl]am) | FPR2 Ga16-CHO (Rel. eff.) (listed as {Ethyl[(2S)-4-methyl-2-({[4-(trifluoromethyl)phenyl]carbamoyl}amino)pentanoyl]am) |
| --- | --- | --- | --- | --- |
| CC(C)C[C@H](NC(=O)Nc1ccc(Br)cc1)C(=O)N(C)CC(=O)OC(C)(C)C [Compound 1, tert-Butyl{[(2S)-2-{[(4-Bromophenyl)carbamoyl]amino}-4-methylpentanoyl](methyl)amino}acetate] | (0.85) | 11.8 nM |  |  |
| CC(C)C[C@H](NC(=O)Nc1ccc(C(F)(F)F)cc1)C(=O)N(C)CC(=O)OC(C)(C)C [Compound 2, tert-Butyl {Methyl[(2S)-4-methyl-2-({[4-(trifluoromethyl)phenyl]carbamoyl}amino)pentanoyl]amino}acetate] | (1.02) | 995 nM |  |  |
| CC(C)C[C@H](NC(=O)Nc1ccc(Br)cc1)C(=O)N(CC(=O)OC(C)(C)C)C(C)C [Compound 3, tert-Butyl {[(2S)-2-{[(4-Bromophenyl)carbamoyl]amino}-4-methylpentanoyl](propan-2-yl)amino}acetate] | (1.06) | 163 nM |  |  |
| CCCN(CC(=O)OC(C)(C)C)C(=O)[C@H](CC(C)C)NC(=O)Nc1ccc(Br)cc1 [Compound 4, tert-Butyl {[(2S)-2-{[(4-Bromophenyl)carbamoyl]amino}-4-methylpentanoyl](propyl)amino}acetate] | (1.04) | 0.29 nM |  |  |
| CCCN(CC(=O)OC(C)(C)C)C(=O)[C@H](CC(C)C)NC(=O)Nc1ccc(C(F)(F)F)cc1 [Compound 5, tert-Butyl {[(2S)-4-Methyl-2-({[4-(trifluoromethyl)phenyl]carbamoyl}amino)pentanoyl](propyl)amino}acetate] | (0.95) | 434 nM |  |  |
| CCN(CC(=O)OC(C)(C)C)C(=O)[C@H](CC(C)C)NC(=O)Nc1ccc(Br)cc1 [Compound 6, tert-Butyl {[(2S)-2-{[(4-bromophenyl)carbamoyl]amino}-4-methylpentanoyl](ethyl)amino}acetate] | (0.50) | 1970 nM |  |  |
| CCN(CC(=O)OC(C)(C)C)C(=O)[C@H](CC(C)C)NC(=O)Nc1ccc(C(F)(F)F)cc1 [Compound 7, tert-Butyl {Ethyl[(2S)-4-methyl-2-({[4-(trifluoromethyl)phenyl]carbamoyl}amino)pentanoyl]amino}acetate] | (0.91) | 17 nM |  |  |
| CC(C)C[C@H](NC(=O)Nc1ccc(Br)cc1)C(=O)N(C)CC(=O)O [Compound 8, {[(2S)-2-{[(4-bromophenyl)carbamoyl]amino}-4-methylpentanoyl](methyl)amino}acetic acid] | (1.00) | < 1 nM |  |  |
| CC(C)C[C@H](NC(=O)Nc1ccc(C(F)(F)F)cc1)C(=O)N(C)CC(=O)O [Compound 9, {Methyl[(2S)-4-Methyl-2-({[4-(trifluoromethyl)phenyl]carbamoyl}amino)pentanoyl]amino}acetic acid] | (1.02) | 0.41 nM |  |  |
| CC(C)C[C@H](NC(=O)Nc1ccc(Br)cc1)C(=O)N(CC(=O)O)C(C)C [Compound 10, {[(2S)-2-{[(4-Bromophenyl)carbamoyl]amino}-4-methylpentanoyl](propan-2-yl)amino}acetic acid] | (0.97) | 0.24 nM |  |  |
| CC(C)C[C@H](NC(=O)Nc1ccc(C(F)(F)F)cc1)C(=O)N(CC(=O)O)C(C)C [Compound 11, {[(2S)-4-Methyl-2-({[4-(trifluoromethyl)phenyl]carbamoyl}amino)pentanoyl](propan-2-yl)amino}acetic acid] | (0.75) | 1730 nM |  |  |
| CCCN(CC(=O)O)C(=O)[C@H](CC(C)C)NC(=O)Nc1ccc(C(F)(F)F)cc1 [Compound 13, {[(2S)-4-Methyl-2-({[4-(trifluoromethyl)phenyl]carbamoyl}amino)pentanoyl](propyl)amino}acetic acid] | (1.04) | < 1 nM |  |  |
| CCN(CC(=O)O)C(=O)[C@H](CC(C)C)NC(=O)Nc1ccc(Br)cc1 [Compound 14, {[(2S)-2-{[(4-Bromophenyl)carbamoyl]amino}-4-methylpentanoyl](ethyl)amino}acetic acid] | (0.99) | 0.13 nM |  |  |
| CCN(CC(=O)O)C(=O)[C@H](CC(C)C)NC(=O)Nc1ccc(C(F)(F)F)cc1 [Compound 15, {Ethyl[(2S)-4-Methyl-2-({[4-(trifluoromethyl)phenyl]carbamoyl}amino)pentanoyl]amino}acetic acid] |  | 0.32 nM and 1.85 nM | (0.85) | (1.02) |
